Values joined by “and” are separate entries in the source; they are usually repeats but may differ in a detail not shown here. Identical values can stand only once.
Legend:
HepG2 cells = assay: Cell uptake of ^18F-CML and native CML in HepG2 cells; format: cell-based; details: n=3, P<0.01, blocking with non-radioactive CML
Description: To compare the different bioactivities of CML and ^18F-CML, two cell lines were evaluated for their capacity to take up native CML and the fluorobenzoylated derivative ^18F-CML. RAW264.7 macrophages and HepG2 liver cells were cultured in DMEM/LOWGLUCOSE, supplemented with 10% fetal bovine serum (FBS), 4.0 mmol/L L-glutamine, 110 mg/L sodium pyruvate, 100 U/mL penicillin, and 100 mg/L streptomycin at 37°C and 5% CO2.
For ^18F-CML cell uptake studies, RAW264.7 cells and HepG2 cells were seeded into 24-well plates at a density of 4×10^5 cells per well. Radio-tracer ^18F-CML (0.5 µCi/well, 3 µmol/mL) was incubated in a 37°C water bath for 15, 30, 60, and 120 min. At each time point the cells were washed 3 times with phosphate-buffered saline (PBS). The supernatant, washing-up liquid (unbound activity) and the pellet (cell-bound activity) were transferred to new tubes. Triplicates of the counting tubes containing supernatant and cell pellet were counted individually using a gamma counter for 1 min. For the blocking experiment, the uptake was carried out in the presence of the non-radioactive CML(10 µmol/mL) and processed similarly as described above. The uptake (%) of radio-tracer into the cell was determined using a gamma counter according to the following equation: [drawing 1]
For CML cell uptake ratio studies, unaltered CML (10 µmol/mL) was added to RAW264.7 and HepG2 cell pellets individually. The total proteins of each cell line were initially extracted from the lysates of 4×10^5 cells. […] The supernatants were purified and detected usingby the method described by Drusch et al., which uses an RP-HPLC method with an ortho-phthaldialdehyde (OPA)-derivatisation and fluorescence detection suited for automation. The HPLC analysis method used a 250 mm×4.6 mm C18 column (GROM-SIL 100 ODS-0 AB, Herrenberg, Germany) and detected the fluorescence excitation at 340 nm and emission at 455 nm. The peak identification of CML was confirmed by the retention time and standard addition and was quantified using an external standard. The amount of CML was calculated and expressed as a percentage.

[1] = microPET imaging after intragastric administration; format: in vivo, ICR mice
Description: Male ICR mice weighing 18–20 g (7–8 wks old, n = 4) were kept fasting for 14 h […] and had free access to water before the experiments that followed. For the experiment, the mice were anesthetized and unconsciousness was maintained with a mixture of 1.5% isoflurane and nitrous oxide∶oxygen (7∶3). Approximately 3.0 MBq (80 µCi) of ^18F-labeled CML was administered via the gastrointestinal route. Five-minute static PET images were acquired at 15, 30, 60, 120 and 150 min post-injection.
(§1) Dynamic PET studies were performed using a dedicated microPET scanner for small animals. For imaging studies, the animals were under isoflurane anesthesia and then positioned and immobilized supine with their medial axis parallel to the axial axis of the scanner with the thorax and abdominal region (organs of interest: heart, liver, and kidneys) in the center of the field of view.
Approximately 5 min was needed to set the position of the animals after intragastric or intravenous administration of the drug solution containing ^18F-CML. Then, the emission data were acquired for 120 min. An attenuation map was created for each mouse by intravenously administering the residual ^18F-CML after acquisition of the emission data. […] The quantitative analyses of the hepatic and renal distributions of ^18F-CML were performed using ASIPro installed in the PET system.

[2] = ^18F-CML in vitro stability (RCP by paper chromatography at room temperature); format: physicochemical; details: 6 h at room temperature (26±2°C)
Description: The in vitro stability of ^18F-CML was studied by storing the freshly prepared complex at room temperature (26±2°C) for a period of 6 h. The RCP was evaluated every 0.5 h using paper chromatography to determine its in vitro stability.

[3] = Biodistribution after intravenous administration; format: in vivo, ICR mice; details: for Uptake in bladder, percentage of injected dose per whole tissue / Uptake in brain, percentage of injected dose per whole tissue / Uptake in heart, percentage of injected dose per whole tissue / Uptake in intestines, percentage of injected dose per whole tissue / Uptake in kidneys, percentage of injected dose per whole tissue / Uptake in liver, percentage of injected dose per whole tissue / Uptake in lungs, percentage of injected dose per whole tissue / Uptake in muscles, percentage of injected dose per whole tissue / Uptake in pancreas, percentage of injected dose per whole tissue / Uptake in stomach, percentage of injected dose per whole tissue: intravenous administration, n=3, mean ± SD
Description: The biodistribution of ^18F-CML was studied in eighteen young male ICR mice with a weight range of 18–20 g. Nine mice were used for intravenous administration and the other nine mice were used for intragastric administration.
For intravenous administration, ^18F-CML was injected into a lateral tail vein of the animals under light ether anesthesia. The injection volume (2–3 MBq; radiochemical purity 96%) was 0.1 mL. For intragastric administration, 1.5 MBq of ^18F-labeled CML was given via gastrointestinal tract tract.
The mice were sacrificed at 5, 60, and 120 min after administration of ^18F-CML (three mice at each time point). The animals were sacrificed by heart puncture under ether anaesthesia. The tissues and organs of interest were isolated and counted in a well-type γ counter. Additionally, 200 µL of blood was taken from the carotid artery. The distributions of ^18F-CML in different tissues and organs were calculated and expressed as the percent uptake of the injection dose per whole tissue (% ID).

[4] = microPET imaging after intravenous administration; format: in vivo, ICR mice; details: after intravenous injection
Description: After adjusting the animal board position, 0.15 mL of an ^18F-CML solution was administered intravenously via the tail vein. The solution of ^18F-CML was prepared just prior to the intravenous administration. The dose of ^18F-CML was adjusted to approximately 80 µCi per mouse (n = 4), and the pH of the solution was adjusted to 7.4. Here, the specific activity corresponded to 3 MBq/nmol. Dynamic PET images were acquired continuously for 2 hours.
as §1
Approximately 5 min was needed to set the position of the animals after intragastric or intravenous administration of the drug solution containing ^18F-CML. Then, the emission data were acquired for 120 min. An attenuation map was created for each mouse by intravenously administering the residual ^18F-CML after acquisition of the emission data. The acquired data were sorted into dynamic sinograms. […] The quantitative analyses of the hepatic and renal distributions of ^18F-CML were performed using ASIPro installed in the PET system.

[5] = intravenous, 60 min post-injection

With O=C(O)CNCCCCC(NC(=O)c1ccc([18F])cc1)C(=O)O (centres unmarked) [^18F-CML] the “Uptake of radioactivity in untreated cells relative to unlabelled CML-treated (blocked) cells” value (HepG2 cells) was 1.6 fold, the “Localization of radioactivity (PET)” value ([1]; first 15 min after administration via stomach tube) was “completely localized in the stomach” and the “Resorption of radioactivity from the small intestine (PET)” value ([1]; within 2 h after application via stomach tube) was “not observed”. For the same compound, the “Radiochemical purity (RCP) retained on storage (in vitro stability)” value [2] was 98.2±0.3%, the “Radioactivity in stomach, lungs, liver and intestines taken together, of the total injected dose” value ([3]; intravenous) was “less than 10%” and the “Uptake in bladder, percentage of injected dose per whole tissue” value ([3]; 5 min) was 26.50±1.70 %ID. For the same compound, the “Uptake in brain, percentage of injected dose per whole tissue” value ([3]; 5 min) was 3.04±0.02 %ID, the “Uptake in heart, percentage of injected dose per whole tissue” value ([3]; 5 min) was 11.15±0.05 %ID and the “Uptake in intestines, percentage of injected dose per whole tissue” value ([3]; 5 min) was 1.02±0.05 %ID. For the same compound, the “Uptake in kidneys, percentage of injected dose per whole tissue” value ([3]; 5 min) was 29.30 %ID and 29.30±2.05 %ID, the “Uptake in liver, percentage of injected dose per whole tissue” value ([3]; 5 min) was 17.28±2.04 %ID and the “Uptake in lungs, percentage of injected dose per whole tissue” value ([3]; 5 min) was 1.65±0.05 %ID. For the same compound, the “Uptake in muscles, percentage of injected dose per whole tissue” value ([3]; 5 min) was 8.02±0.82 %ID, the “Uptake in pancreas, percentage of injected dose per whole tissue” value ([3]; 5 min) was 0.9±0.04 %ID and the “Uptake in stomach, percentage of injected dose per whole tissue” value ([3]; 5 min) was 0.35±0.02 %ID. The “Uptake in bladder, percentage of injected dose per whole tissue” value ([3]; 60 min) was 41.28±3.50 %ID, the “Uptake in brain, percentage of injected dose per whole tissue” value ([3]; 60 min) was 0.38±0.01 %ID and the “Uptake in heart, percentage of injected dose per whole tissue” value ([3]; 60 min) was 5.05±0.01 %ID. The “Uptake in intestines, percentage of injected dose per whole tissue” value ([3]; 60 min) was 2.35±0.01 %ID, the “Uptake in kidneys, percentage of injected dose per whole tissue” value ([3]; 60 min) was 35.6 %ID and 35.6±4.06 %ID and the “Uptake in liver, percentage of injected dose per whole tissue” value ([3]; 60 min) was 9.72±1.62 %ID. For the same compound, the “Uptake in lungs, percentage of injected dose per whole tissue” value ([3]; 60 min) was 1.12±0.02 %ID, the “Uptake in muscles, percentage of injected dose per whole tissue” value ([3]; 60 min) was 5.17±1.12 %ID and the “Uptake in pancreas, percentage of injected dose per whole tissue” value ([3]; 60 min) was 0.01±0.0 %ID. For the same compound, the “Uptake in stomach, percentage of injected dose per whole tissue” value ([3]; 60 min) was 0.02±0.01 %ID, the “Uptake in bladder, percentage of injected dose per whole tissue” value ([3]; 120 min) was 72.30±5.20 %ID and the “Uptake in brain, percentage of injected dose per whole tissue” value ([3]; 120 min) was 0.07±0.00 %ID. The “Uptake in heart, percentage of injected dose per whole tissue” value ([3]; 120 min) was 1.03±0.00 %ID, the “Uptake in intestines, percentage of injected dose per whole tissue” value ([3]; 120 min) was 0.5±0.00 %ID and the “Uptake in kidneys, percentage of injected dose per whole tissue” value ([3]; 120 min) was 18.1 %ID and 18.1±2.65 %ID. For the same compound, the “Uptake in liver, percentage of injected dose per whole tissue” value ([3]; 120 min) was 3.28±0.05 %ID, the “Uptake in lungs, percentage of injected dose per whole tissue” value ([3]; 120 min) was 0.25±0.00 %ID and the “Uptake in muscles, percentage of injected dose per whole tissue” value ([3]; 120 min) was 3.02±0.82 %ID. The “Uptake in pancreas, percentage of injected dose per whole tissue” value ([3]; 120 min) was 0.00±0.02 %ID, the “Uptake in stomach, percentage of injected dose per whole tissue” value ([3]; 120 min) was 0.01±0.00 %ID and the “Injected dose found in the urine and stomach, lungs, liver and intestines” value [3, 5] was “less than 50%”. For the same compound, the “Remaining radioactivity located in the circulating blood” value [3, 5] was “approximately 8%” and the “Duration of continued accumulation of radioactivity in the kidneys (PET)” value [4] was “approximately 60 min”.
